In assay [1] the test system is U373vIII tumours. Briefly: Growth of U373vIII subcutaneous tumours in SCID mice under daily CI-1033. It is filed as in vivo. An excerpt: U373 (human astrocytoma) cells, their stable variant U373vIII expressing Tet-off regulated EGFRvIII or EGFRvIII fused at C-terminus to green fluorescent protein (pEGFPN1) cassette (U373vIII-GFP) and A431 are maintained as described previously (Viloria-Petit et at Am. J. Pathology, 1997, 6:1523-1530; Yu et al., 2005, Blood, 105: 1734-1741) in medium containing microvesicle-depleted fetal bovine serum FBS. HUVEC cells are maintained in EGM-2 (Cambrex Bioscience, Walkesville, Md., USA). Microvesicles are collected from conditioned media or mouse plasma, as previously described (Yu & Rak, J. Thromb. Haemost, 2004, 2:2065-67; Al-Nedawi et al., 2005, Arterioscler. Thromb. Vasc. Biol., 25: 1744-1749). Briefly, media are subjected to two successive centrifugations at 300 g and 12000 g to eliminate cells and debris. Microvesicles are pelleted by ultracentrifugation for 2 hours at 100 000 g and quantified by protein content and analyzed for EGFR or EGFRvIII content. For scanning electron microscopy (SEM) the cells are grown on cover slips, fixed with 2.5% gluteraldehyde, stained with 1% OsO4, covered with gold and visualized using the JEOL 840A instrument. For in vivo analyses tumors are generated by injection of 1-10×10^6 U373vIII or U373 cells into immunodeficient (SCID) mice (Charles River, Canada). […]

The test system of assay [2] is Erk1/2 phosphorylation in U373 cells. Briefly: Microvesicle transfer assay, Erk1/2 phosphorylation in U373 acceptor cells. The assay is classed as cell-based, human. The following applies: microvesicles preincubated with agent, 24 hours (FIG. 3A, 3B). On the procedure: (§1) U373 (acceptor) cells are treated with microvesicles for 24 hours and a single-cell suspension is analyzed by flow cytometry or fluorescent microscopy for expression of EGFRvIII or GFP. […] The expression of microvesicle associated molecules (EGFRvIII, TF), and expression of total and activated MAPK and Akt as well as other changes are assayed by immunoblot (BcIxL, p27/Kip1), ELISA (VEGF, R&D Systems), or promoter activity assays (VEGF), as described elsewhere (Lopez-Ocejo et al. 2000, Oncogene, 40:4611-4620): For soft agar colony formation assays single cell suspensions are prepared in 0.3% agarose from equal numbers of cells pretreated with microvesicles or control media. Cultures are established in plates precoated with 0.5% agarose and all colonies containing more than 4 cells are counted.

The test system of assay [3] is VEGF production by U373 cells. Briefly: Microvesicle transfer assay, VEGF production by U373 cells (ELISA). The assay is classed as cell-based, human. The note with it: microvesicles preincubated with CI-1033 (FIG. 4A). As for the experimental part: as §1
A general note: In an ELISA, binding on a coated surface is turned into a signal by an enzyme label.

Assay [4] relates to A431 tumours. Briefly: Growth of A431 subcutaneous tumours in mice under daily CI-1033. The following applies: 20 mg/kg intraperitoneally, 7 days (FIG. 13A). It is filed as in vivo.
For assay [5], the system named is VEGF promoter activity in U373 cells. Briefly: Microvesicle transfer assay, VEGF promoter activity in U373 cells. The assay is classed as cell-based, human. The note with it: microvesicles pretreated with annexin V (FIG. 4B). As for the experimental part: as §1
The test system of assay [6] is Akt phosphorylation in U373 cells. Briefly: Microvesicle transfer assay, Akt phosphorylation in U373 acceptor cells. The assay is classed as cell-based, human. The note with it: microvesicles preincubated with annexin V (FIG. 3C). On the procedure:
as §1

For assay [7], the system named is BcIxL and p27/Kip1 expression in U373 cells. Briefly: Microvesicle transfer assay, BcIxL and p27/Kip1 expression in U373 cells (immunoblot). The note with it: annexin V-mediated blockade of microvesicle uptake. It is filed as cell-based, human. As for the experimental part:
as §1

For the compound `C=CC(=O)Nc1cc2c(Nc3ccc(F)c(Cl)c3)ncnc2cc1OCCCN1CCOCC1` [CI-1033], in assay [1] (SCID mice, daily doses of CI-1033 (FIG. 1D)), the “Formation/growth of U373vIII subcutaneous tumors” value is on record as “susceptible to inhibition”. Further, the “Tumour response (tumour size)” value in assay [1] (U373vIII tumours, 20 mg/kg intraperitoneally, daily, 7 days (FIG. 13A)) was “responsive”; in assay [4] it was “responsive”. The “Erk1/2 phosphorylation induced by U373vIII-derived microvesicles” value in assay [2] is “markedly reduced”. Further, the “Release of VEGF induced by U373vIII microvesicles” value in assay [3] is “unable to induce this release of VEGF”.
Regarding “annexin V: blocks exposed phosphatidylserine residues of microvesicles and thereby their uptake by U373 cells”, the “Erk1/2 phosphorylation induced by U373vIII-derived microvesicles” value in assay [2] is “abrogated”. In addition, the “VEGF promoter activity stimulated by EGFRvIII containing microvesicles” value in assay [5] is reported as “abrogated”. Moreover, the “Akt phosphorylation induced by U373vIII-derived microvesicles” value in assay [6] is “inhibitable”. In addition, in assay [7], the “Decrease in levels of p27/Kip1 caused by EGFRvIII-containing microvesicles” value is “inhibited” and the “Increase in expression of BcIxL caused by EGFRvIII-containing microvesicles” value is listed as “inhibited”.

Source of the values: patent publication US10352935B2, “Tumor cell-derived microvesicles” (The Hospital for Sick Children, priority 2007, dated 2019).
